Source: patent publication US9205137B2, “Maturation of gastrointestinal tract” (ANARA AB, priority 2010, dated 2015)

Columns and labels:
[1] = system: 14-d-old rat pups; experiment: Disaccharidase activity in distal intestinal homogenates, Creon with drug pre-treatment, Example 2; type: in vivo; settings: for Disaccharidase specific activity, Lactase / Disaccharidase specific activity, Maltase / Disaccharidase specific activity, Sucrase: drug alone, then water (no Creon), distal part
Method: (§1) In both of the following experiments 14-d-old pups were weighed and divided into groups and further to subgroups depending on the aim of each experiment. Pups were fed intragastrically via a feeding tube (0.96 mm outer diameter, PE50, Becton Dickinson, Sparks, Md., USA), in a volume 0.01 mL/g b.wt. The dose(s) for each pup was repeated once daily in corresponding manner for three days (14, 15, 16-d-old).
(§2) At 17 days of age, all the pups were separated from their dams and then anesthetized by a subcutaneous injection of a mixture of Azaperone® (Stresnil; Janssen Pharmaceutica, Beerse, Belgium), 30 μg/g body weight (b.wt), and Ketamine® (Ketalar; Pfizer, New York, N.Y., USA), 170 μg/g b.wt. Once sure of anesthesia, the abdomen and thorax were then opened, euthanized via heart puncture. The small intestine was, after it was dissected out, length measured and then divided into two equally long proximal and distal parts, both of which were flashed with cold saline followed by a measurement of each one's weight. A 2 cm piece was collected from the midsection of the distal part and fixed in bouin's solution for 24 hr at room temperature for morphological changes measurements, while the rest parts of it were immediately frozen on dry ice and stored for functional analysis.
The distal part of the small intestine was homogenized in cold 0.9% NaCl (1:10 w/v). Then, the disaccharidase activities were measured by the Dahlqvist A method, by incubating the homogenates with the appropriate disaccharide for 1 h at 37° C., thereafter the liberated glucose was measured by using a glucose oxidase reagent (Sigma chemicals), as described in Dahlqvist, A, in 1984 (Assay of intestinal disaccharidases, Scand J Clin Lab Invest, 1984; 44: 169-172).
The protein contents were determined by the method of Lowry et al (Lowry O H, Rosebrough N J, Farr A L & Randall R J Protein measurement with the Folin phenol reagent, J Biol Chem; 1951:193, 265-275.), modified for 96-well microplates as described in Pierzynowsk et al (Pierzynowsk S G, Westrom B R, Svendsen J & Karlsson B W. Development of exocrine pancreas function in chronically cannulated pigs during 1-13 weeks of postnatal life. J Pediatr Gastroenterol Nutr 1990; 10:206-212), and using serial dilutions of BSA (Sigma chemicals) as a standard.
(§3) The 2nd exp. includes four litters; all pups (n=36) were randomly divided into two groups (Creon: 150 mg of capsule (lipase 10 000 USP, potease 37 500 USP, amylase 33 200 USP and water), the dose of Creon was 1.5 mg/g b.wt), then each group divided into subgroup pretreated one hour prior to enzyme feeding with anti-inflammatory drugs, Ibuprofen or Celecoxib (celecoxib; Pfizer, New York, N.Y., USA) the dose of drugs was 0.01 mg/g b.wt per day for both, diluted to give volume 0.01 mL/g b.wt. Thus six groups were obtained water/water, Ibupofen/water, Celecoxib/water, water/Creon, Ibuprofen/Creon and Celecoxib/Creon.

[2] = system: 14-d-old rat pups; experiment: Small intestine length and weight, Creon with anti-inflammatory drug pre-treatment, Example 2; type: in vivo; settings: for Small intestine Distal wt / Small intestine Length / Small intestine Proximal wt: drug 0.01 mg/g b.wt per day, then water (no Creon)
Method: as §1, §2
In order to compensate for individual variations in BW, the organ measurements are presented per g BW. All data are presented as mean values and standard deviations. Statistical comparisons between all groups were carried out using a one-way ANOVA analysis (SigmaStat 2.0; Jandel Scientific, San Rafael, Calif., USA) with all pairwise multiple-comparison procedures (Student Newman-Keuls method). Differences were considered to be significant when P<0.05.
as §3

[3] = cited from earlier work
[4] = system: 14-d-old rat pups; experiment: Morphometry of mature enterocytes along villi, Creon with drug pre-treatment, Example 2; type: in vivo; settings: for Mature epithelium: drug 0.01 mg/g b.wt per day, then water (no Creon)
Method: as §1, §2
All the samples from the distal SI were embedded into paraffin, cut laterally into […] thick sections, deparaffinated, and stained with hematoxylin and eosin according to standard procedures. All the samples were then imaged by using an Olympus PROVIS microscope (objective ×10) utilizing an Olympus DP50 camera (Olympus, Tokyo, Japan). Morphomertic analysis by measuring the ratio of the length of the adult-like epithelium to whole villi length was done by using ImageJ 1.36 program (National Institute of Health, Bethesda, Md.). […]

[5] = system: suckling rats; experiment: Set I: plasma concentration of marker molecules BSA and BIgG (macromolecule absorption), Example 3; type: in vivo, Rattus norvegicus; settings: 3 hours after marker feeding, day 17, in words (FIG. 6)
Excerpt: The plasma level of marker molecules was quantified by using immunoassay rocket electrophoresis and SRI (single radial immunodiffusion) for plasma BSA and BIgG respectively.

[6] = system: suckling rats; experiment: Set I: body weight, GI and lymphoid organ weights, stomach pH after individual enzymes or mixture, Example 3; settings: day 17; for Body weight / Cecum / Distal SI / Liver / Pancreas / Proximal SI / SI length / Spleen / Stomach / Thymus: 3 days treatment; for pH: stomach contents
Method: All experiments were performed in young suckling rats by feeding them from 14 days of age via stomach tube for 3 continuous days (ones a day). One day after last treatment rats were euthanized and plasma and organs proceeded to study structural and functional changes of gastrointestinal system.
The pups were kept with their dam until dissection day (day 17).
In this set suckling pups were divided into five groups; control (water) amylase 10 000 USP/rat/day, lipase 4 000 USP/rat/day, protease 15 000 USP/rat/day, and mixture of these enzyme with corresponding activities per rat and day. This study was evaluating the effects of different pancreatic-like enzymes on the gut maturation and functioning and had 3 individual litters; n=12, n=10 and n=13, totally n=7 pups per each group. Each of the enzymes (Amylase, Protease and Lipase) (Sigma Aldrich) was available in the powder form and was resolved in distilled water prior to stomach feeding during days 14, 15 and 16. The volume of administered enzymes and distilled water (for control groups) was 0.01 ml/g BW. Each time, prior to the feeding procedure, the pups were weighed. […] Then 3 hours later, the pups were sedated with CO2 and anaesthetized by subcutaneous injection with a mixture of ketamine (Ketalar®, Pfizer, New York, USA, NaCl and azaperone (Stresnil®, Janssen Pharmaceutica, Beerse, Belgium), 0.01 ml/g BW. After opening the abdomen of the rats, 1 ml of blood was collected from heart by using syringes containing protease inhibitor and EDTA (50 μl) as anticoagulant and was transferred into ice-chilled tubes. After this, the pancreas was immediately dissected and rinsed with cold 0.9% NaCl, weighted and stored at −70 C. The SI was removed and its length was measured then divided into two halves, proximal and distal. Each segment was flushed out with cold 0.9% NaCl to clean the lumen and was then weighed separately. […] The stomach was removed and its content was collected into the tube (for measuring its pH) and frozen. Then cecum was dissected out, opened, rinse and weighed as well as liver and lymphoid organs spleen and thymus were dissected and weighted.
The contents of the stomach were de-frozen and then resolved with 1 ml of cold 0.9% NaCl. After resolving, they were centrifuged and the pH was measured in the supernatant using pH-meter.
All data are presented as mean±standard deviation (SD). Statistical comparisons between each group and control group were performed using the t-test. Results were considered as significant when P<0.05.

[7] = system: suckling rats; experiment: Set I: intestinal morphology of distal SI, Example 3; type: in vivo, Rattus norvegicus; settings: distal part of SI, day 17
Method: All samples collected for histology were fixed with Bouin's solution for 24 hours and then stored in 70% ethanol, dehydrated, embedded into the paraffin and then cut into sections with 5 μm thickness. The tissue sections were transferred onto the slides, rehydrated and stained with H&E according to the standard technique. After mounting under cover slips samples were examined using light microscopy to estimate ratio between total length of the villus and length of the adult type enterocytes using ImageJ program.

[8] = system: suckling rats; experiment: Set I: brush-border disaccharidase activity in proximal SI, Example 3; type: in vivo, Rattus norvegicus; settings: proximal part of SI, in words (FIG. 5)
Method: The proximal samples of the SI were de-frozen and weighted and then homogenized with 9 parts of 0.9% NaCl (9 w/v). The homogenates (50 μl diluted samples) were incubated with the appropriate disaccharide (50 μl of 0.056M sucrose, maltose and lactose) for 1 hour at 37° C. After this, the liberated glucose was determined by adding glucose oxidase reagent (Sigma Chemicals), and incubated for 30 minutes. Then samples were transferred into the 96-well plate in triplication and the absorbance was measured at 450 nm. To measure the protein contents of the homogenates, Lowry method, was used, where BSA (Bovine Serum Albumin) was used as a standard. The results are presented as specific activity units per mg of protein (u/mg).

[9] = system: suckling rats; experiment: Papain vs microbial protease: macromolecule absorption (BSA, BIgG in plasma), Example 8; type: in vivo, Rattus norvegicus; settings: in words (FIG. 14)
Excerpt: (§4) The litter size for each dam was limited to 12 or 13 pups, to reduce variability.
(§5) Suckling pups were divided into 3 groups depending on the treatments; microbial protease as a positive control, water as negative control and enzyme from papaya fruit (papain) (in total; protease=7, papain=8, control=7). The enzymes are available in the market in form of powders and were resolved in distilled water prior to stomach feeding during 14-16 d of age. The administered dose for each enzyme was 10000 USP/animal. The volume of administered enzymes and water (for control groups) was 0.01 ml/g b.wt. Prior to the feeding procedure, the pups were weighed. […] Three hours later, the pups were anaesthetized and organs were dissected out for analyses.

[10] = system: young rats; experiment: Growth of young rats treated with microbial amylase or lipase, Example 7; type: in vivo; settings: 10 000 USP for amylase/rat, days 14-16, in words (FIG. 11)
Method: This study was done to consider the effect of separated enzymes on body growth. The experiment is completing study done earlier to investigate effects of protease on body growth and was performed in similar mode (see experiment 3-5 above).
Suckling pups were divided into 3 groups depending on the treatment; amylase, lipase and water (n=7 per group). The enzymes are available in the market in form of powders and were resolved in distilled water prior to stomach feeding during 14-16 d of age, ones a day. The administered dose for each single enzyme feeding was 4 000 USP for lipase/rat and 10 000 USP for amylase/rat. The control group received vehicle.

[11] = system: suckling rats; experiment: Papain vs microbial protease: body and organ weight, Example 8; type: in vivo, Rattus norvegicus
Excerpt: as §4, §5

[12] = system: suckling rats; experiment: Papain vs microbial protease: intestinal disaccharidase activity in proximal SI, Example 8; type: in vivo, Rattus norvegicus; settings: proximal part of SI, in words (FIG. 13)
Excerpt: as §4, §5
The activities of the brush-border enzymes lactase, maltase and sucrase were analyzed in the proximal part of the SI in groups treated with papain and protease.

[13] = drug one hour prior to Creon, in words
[14] = 10000 USP/animal, days 14-16, day 17

For Cc1ccc(-c2cc(C(F)(F)F)nn2-c2ccc(S(N)(=O)=O)cc2)cc1 [Celexosib, Celecoxib], the “Disaccharidase specific activity, Lactase” value [1] was 100.91 U/mg, the “Disaccharidase specific activity, Maltase” value [1] was 72.24 ^A U/mg and the “Disaccharidase specific activity, Sucrase” value [1] was 1.28 ^A U/mg. For the same molecule, the “Small intestine Distal wt” value [2] was 14.45 ^A mg/g bwt, the “Small intestine Length” value [2] was 1.64 cm/g bwt and the “Small intestine Proximal wt” value [2] was 16.32 ^A mg/g bwt. The half life [3] was 12 h and the Mature epithelium [4] was 7.98^A %.

With CC(C)Cc1ccc(C(C)C(=O)O)cc1 (centres unmarked) [Ibuprofen] the “Disaccharidase specific activity, Lactase” value [1] was 114.17 U/mg, the “Disaccharidase specific activity, Maltase” value [1] was 82.75 ^A U/mg and the “Disaccharidase specific activity, Sucrase” value [1] was 1.12 ^A U/mg. The “effect of drug pre-treatment on disaccharidases activities under Creon” value [1, 13] was “unaffected”, the “Small intestine Distal wt” value [2] was 13.81 ^A mg/g bwt and the “Small intestine Length” value [2] was 1.60 cm/g bwt. For the same molecule, the “Small intestine Proximal wt” value [2] was 16.24 ^A mg/g bwt, the “effect of drug pre-treatment on the effect of Creon on intestinal weight and length” value [2, 13] was “could not be cancelled” and the Mature epithelium [4] was 8.78^A %. The “effect of drug pre-treatment on mature cells (morphometric analysis) under Creon” value [4, 13] was “unaffected”.

With Lipase from B. cepacia the “uptake of marker molecule BIgG to plasma” value [5] was “remained in a higher level”, the “uptake of marker molecule BSA to plasma” value [5] was “remained in a higher level” and the Body weight [6] was 36.8 ± 2.2 gr. For the same molecule, the Cecum [6] was 2.4 ± 0.4 mg/g BW, the “Distal SI” value [6] was 15.2 ± 0.9 mg/g BW and the Liver [6] was 34.5 ± 1.8 mg/g BW. For the same molecule, the Pancreas [6] was 3.7 ± 0.5 mg/g BW, the “Proximal SI” value [6] was 17.5 ± 1.7 mg/g BW and the SI length [6] was 1.5 ± 0.1 cm/g BW. For the same molecule, the Spleen [6] was 3.5 ± 0.4 mg/g BW, the Stomach [6] was 6.9 ± 0.8 mg/g BW and the Thymus [6] was 4.9 ± 0.8 mg/g BW. For the same molecule, the pH [6] was 4.0 ± 0.3, the “foetal-type epithelium with vacuolated enterocytes along the villi” value [7] was 77% and the lactase activity [8] was “higher”. For the same molecule, the maltase activity [8] was “stayed in a lower level” and the sucrase activity [8] was “stayed in a lower level”.

In the case of bromelain, the “intestinal macromolecular absorptive capacity” value [9] is reported as “remained in a higher level”.

In the case of α-Amylase from Aspergillus oryzae, the “uptake of marker molecule BIgG to plasma” value [5] is reported as “remained in a higher level”, the “uptake of marker molecule BSA to plasma” value [5] is reported as “remained in a higher level” and the Body weight [6] is reported as 37.2 ± 2.3 gr. The Cecum [6] was 2.5 ± 0.3 mg/g BW, the “Distal SI” value [6] was 15.2 ± 2.3 mg/g BW and the Liver [6] was 33.7 ± 1.3 mg/g BW. The Pancreas [6] was 3.5 ± 0.4 mg/g BW, the “Proximal SI” value [6] was 16.6 ± 1.9 mg/g BW and the SI length [6] was 1.5 ± 0.0 cm/g BW. The Spleen [6] was 3.6 ± 0.7 mg/g BW, the Stomach [6] was 6.8 ± 0.4 mg/g BW and the Thymus [6] was 5.1 ± 0.2 mg/g BW. For the same molecule, the pH [6] was 4.0 ± 0.2, the “foetal-type epithelium with vacuolated enterocytes along the villi” value [7] was 77% and the “growth of young rats in comparison to lipase and control group” value [10] was “clear effect of amylase to stimulate growth”. For the same molecule, the lactase activity [8] was “higher”, the maltase activity [8] was “stayed in a lower level” and the sucrase activity [8] was “stayed in a lower level”.

B1: trypsin (protein, UniProt P00760 24-246, looked up)
Serine protease 1: IVGGYTCGANTVPYQVSLNSGYHFCGGSLINSQWVVSAAHCYKSGIQVRLGEDNINVVEGNEQFISASKSIVHPSYNSNTLNNDIMLIKLKSAASLNSRVASISLPTSCASAGTQCLISGWGNTKSSGTSYPDVLKCLKAPILSDSSCKSAYPGQITSNMFCAGYLEGGKDSCQGDSGGPVVCSGKLQGIVSWGSGCAQKNKPGVYTKVCNYVSWIKQTIASN
notes: protease that breaks down proteins at the basic amino acids
With B1 the “weight of distal part of SI” value ([11]; in words) was “increased weight” and the “intestinal macromolecular absorptive capacity” value [9] was “remained in a higher level”.

B2: papain (protein, UniProt P00784 134-345, looked up)
Papain: IPEYVDWRQKGAVTPVKNQGSCGSCWAFSAVVTIEGIIKIRTGNLNEYSEQELLDCDRRSYGCNGGYPWSALQLVAQYGIHYRNTYPYEGVQRYCRSREKGPYAAKTDGVRQVQPYNEGALLYSIANQPVSVVLEAAGKDFQLYRGGIFVGPCGNKVDHAVAAVGYGPNYILIKNSWGTGWGENGYIRIKRGTGNSYGVCGLYTSSFYPVKN
notes: enzyme from papaya fruit (papain)
For B2, the Body weight [11, 14] was 33.2 ± 5.00 gr, the Cecum [11, 14] was 3.42 ± 0.45 mg/g BW and the “Distal SI” value [11, 14] was 17.8 ± 2.5 mg/g BW. The Liver [11, 14] was 33.33 ± 1.52 mg/g BW, the Pncrease [11, 14] was 4.07 ± 0.46 mg/g BW and the “Proxima SI” value [11, 14] was 21.49 ± 1.57 mg/g BW. The SI length [11, 14] was 1.72 ± 0.17 cm/g BW, the Spleen [11, 14] was 3.46 ± 0.44 mg/g BW and the Stomach [11, 14] was 7.13 ± 0.45 mg/g BW. For the same molecule, the Thymus [11, 14] was 4.65 ± 0.92 mg/g BW, the “effect on body growth” value ([11]; dose 10 000 USP, days 14 to 17, in words (FIG. 12)) was “No effect” and the “activity of maltase compared to control” value [12] was “significantly increased”. The “activity of sucrase compared to control” value [12] was “significantly increased”, the “BSA concentration in rat plasma” value ([9]; day 17, 3 hours after feeding) was “significantly decreased” and the “uptake of macromolecules, BIgG absorption” value ([9]; day 17, 3 hours after feeding) was “significantly lower”.
